Legend:
Format in all cases: in vivo
Lamium purpureum = assay: Post-emergence herbicidal action against Lamium purpureum; conditions: 100 g of a.i./ha
Method: (§1) When the observed efficacies exceed the formal sum total of the values of the tests with individual applications, they also exceed the expected value according to Colby, which is calculated using the formula below and is likewise regarded as an indication of synergism (cf. S. R. Colby; in Weeds 15 (1967) p. 20 to 22): E^C=A+B−([…])
(§2) Here: • A=efficacy of the active compound (A) in % at an application rate of a g a.i./ha; • B=efficacy of the active compound (B) in % at an application rate of b g a.i./ha; • E^C=expected value of the effect of the combination (A)+(B) in % at the combined application rate a+b g a.i./ha.
(§3) Seeds or rhizome pieces of mono- and dicotyledonous weeds are placed in sandy loam in pots, covered with soil and grown in a greenhouse under good growth conditions (temperature, air humidity, water supply). Three weeks after sowing, the test plants were treated at the three-leaf stage with the compositions according to the invention. The compositions according to the invention formulated as spray powders or as emulsion concentrates were sprayed onto the green plant parts in various dosages with an application rate of 300 to 800 l/ha of water (equivalent). After the test plants have been left to stand in the greenhouse under optimal growth conditions for about 3 to 4 weeks, the action of the preparations is scored visually in comparison to untreated controls. The compositions according to the invention also have good post-emergence herbicidal activity against a broad spectrum of economically important gramineous and broadleaf weeds.

Poa annua = assay: Post-emergence herbicidal action against Poa annua
Method: as §1, §2, §3

Centaurea cyano = assay: Post-emergence herbicidal action against Centaurea cyano
Method: Seeds or rhizome pieces of mono- and dicotyledonous weeds are placed in sandy loam in pots, covered with soil and grown in a greenhouse under good growth conditions (temperature, air humidity, water supply). Three weeks after sowing, the test plants were treated at the three-leaf stage with the compositions according to the invention. The compositions according to the invention formulated as spray powders or as emulsion concentrates were sprayed onto the green plant parts in various dosages with an application rate of 300 to 800 l/ha of water (equivalent).

Galium aparine = assay: Post-emergence herbicidal action against Galium aparine
Method: as §1, §2, §3

Matricaria inodora = assay: Post-emergence herbicidal action against Matricaria inodora
Lolium rigidum = assay: Post-emergence herbicidal action against Lolium rigidum
From the text: (§4) The following abbreviations are used in the description and the tables that follow: • g of a.i./ha=grams of active substance (active ingredient) (=100% active compound) per hectare; • The sum total of the effects of the individual applications is reported under E^A; • expected values according to Colby are each reported under E^C.
(§5) The rating period is reported in days after application (DAT).

[1] = test system: Lolium rigidum (resistant biotype); assay: Post-emergence herbicidal action against Lolium rigidum (resistant biotype)
From the text: as §4, §5

Phalaris minor = assay: Post-emergence herbicidal action against Phalaris minor
From the text: as §4, §5

Alopecurus myosuroides = assay: Post-emergence herbicidal action against Alopecurus myosuroides
From the text: as §4, §5

Bromus sterilis = assay: Post-emergence herbicidal action against Bromus sterilis
From the text: as §4, §5

Veronica hederifolia = assay: Post-emergence herbicidal action against Veronica hederifolia
From the text: as §4, §5

Viola tricolor = assay: Post-emergence herbicidal action against Viola tricolor
From the text: as §4, §5

CC(C)N(C(=O)COc1nnc(C(F)(F)F)s1)c1ccc(F)cc1 [(B2.28) Flufenacet]
Herbicidal action 14 DAT against Lamium purpureum L. (Lamium purpureum): 40%
Herbicidal action 28 DAT against Lamium purpureum L. (Lamium purpureum): 20%
Herbicidal action 28 DAT against Poa annua L. (Poa annua; 33 g of a.i./ha): 10%
Herbicidal action 28 DAT against Poa annua L. (Poa annua; 100 g of a.i./ha): 70%
Herbicidal action 28 DAT against Poa annua L. (Poa annua; 300 g of a.i./ha): 65%
Herbicidal action 28 DAT against Centaurea cyanus (Centaurea cyano; 100 g of a.i./ha): 20%
Herbicidal action 14 DAT against Centaurea cyanus (Centaurea cyano; 300 g of a.i./ha): 30%
Herbicidal action 28 DAT against Galium aparine (Galium aparine; 33 g of a.i./ha): 60%
Herbicidal action 28 DAT against Galium aparine (Galium aparine; 100 g of a.i./ha): 65%
Herbicidal action 14 DAT against Matricaria inodora (Matricaria inodora; 33 g of a.i./ha): 0%
Herbicidal action 14 DAT against Lolium rigidum (Lolium rigidum; 33 g of a.i./ha): 0%
Herbicidal action 14 DAT against Lolium rigidum (Lolium rigidum; 100 g of a.i./ha): 35%
Herbicidal action 28 DAT against Lolium rigidum (Lolium rigidum; 100 g of a.i./ha): 20%
Herbicidal action 14 DAT against Lolium rigidum (Lolium rigidum; 300 g of a.i./ha): 40%
Herbicidal action 28 DAT against Lolium rigidum (Lolium rigidum; 300 g of a.i./ha): 25%
Herbicidal action 14 DAT against Lolium rigidum (resistant biotype) ([1]; 100 g of a.i./ha): 20%
Herbicidal action 28 DAT against Lolium rigidum (resistant biotype) ([1]; 100 g of a.i./ha): 10%
Herbicidal action 14 DAT against Lolium rigidum (resistant biotype) ([1]; 300 g of a.i./ha): 10%
Herbicidal action 28 DAT against Lolium rigidum (resistant biotype) ([1]; 300 g of a.i./ha): 20%
Herbicidal action 28 DAT against Phalaris minor (Phalaris minor; 33 g of a.i./ha): 0%
Herbicidal action 28 DAT against Phalaris minor (Phalaris minor; 100 g of a.i./ha): 40%
Herbicidal action 28 DAT against Phalaris minor (Phalaris minor; 300 g of a.i./ha): 85%
Herbicidal action 14 DAT against Alopecurus myosuroides (Alopecurus myosuroides; 100 g of a.i./ha): 70%
Herbicidal action 28 DAT against Alopecurus myosuroides (Alopecurus myosuroides; 300 g of a.i./ha): 75%
Herbicidal action 14 DAT against Bromus sterilis (Bromus sterilis; 33 g of a.i./ha): 35%
Herbicidal action 14 DAT against Bromus sterilis (Bromus sterilis; 100 g of a.i./ha): 75%
Herbicidal action 28 DAT against Bromus sterilis (Bromus sterilis; 100 g of a.i./ha): 25%
Herbicidal action 28 DAT against Bromus sterilis (Bromus sterilis; 300 g of a.i./ha): 65%
Herbicidal action 14 DAT against Veronica hederifolia (Veronica hederifolia; 33 g of a.i./ha): 35%
Herbicidal action 14 DAT against Veronica hederifolia (Veronica hederifolia; 100 g of a.i./ha): 40%
Herbicidal action 14 DAT against Viola tricolor (Viola tricolor; 33 g of a.i./ha): 20%
Herbicidal action 28 DAT against Viola tricolor (Viola tricolor; 33 g of a.i./ha): 20%
Herbicidal action 14 DAT against Viola tricolor (Viola tricolor; 100 g of a.i./ha): 50%
Herbicidal action 28 DAT against Viola tricolor (Viola tricolor; 100 g of a.i./ha): 20%
Herbicidal action 28 DAT against Viola tricolor (Viola tricolor; 300 g of a.i./ha): 35%

COc1cc(OC)nc(NC(=O)NS(=O)(=O)c2cc(NC=O)ccc2C(=O)N(C)C)n1 [(B2.31) Foramsulfuron]
Herbicidal action 28 DAT against Poa annua L. (Poa annua; 1 g of a.i./ha): 40%
Herbicidal action 28 DAT against Galium aparine (Galium aparine; 1 g of a.i./ha): 0%
Herbicidal action 28 DAT against Galium aparine (Galium aparine; 9 g of a.i./ha): 65%
Herbicidal action 14 DAT against Matricaria inodora (Matricaria inodora; 1 g of a.i./ha): 70%
Herbicidal action 28 DAT against Matricaria inodora (Matricaria inodora; 1 g of a.i./ha): 30%
Herbicidal action 28 DAT against Lolium rigidum (Lolium rigidum; 3 g of a.i./ha): 35%
Herbicidal action 28 DAT against Lolium rigidum (Lolium rigidum; 9 g of a.i./ha): 65%
Herbicidal action 14 DAT against Lolium rigidum (resistant biotype) ([1]; 3 g of a.i./ha): 15%
Herbicidal action 28 DAT against Lolium rigidum (resistant biotype) ([1]; 3 g of a.i./ha): 10%
Herbicidal action 14 DAT against Lolium rigidum (resistant biotype) ([1]; 9 g of a.i./ha): 15%
Herbicidal action 28 DAT against Lolium rigidum (resistant biotype) ([1]; 9 g of a.i./ha): 20%
Herbicidal action 14 DAT against Phalaris minor (Phalaris minor; 3 g of a.i./ha): 85%
Herbicidal action 28 DAT against Phalaris minor (Phalaris minor; 3 g of a.i./ha): 40%
Herbicidal action 14 DAT against Phalaris minor (Phalaris minor; 9 g of a.i./ha): 80%
Herbicidal action 28 DAT against Phalaris minor (Phalaris minor; 9 g of a.i./ha): 20%
Herbicidal action 14 DAT against Alopecurus myosuroides (Alopecurus myosuroides; 1 g of a.i./ha): 80%
Herbicidal action 28 DAT against Alopecurus myosuroides (Alopecurus myosuroides; 1 g of a.i./ha): 40%
Herbicidal action 28 DAT against Alopecurus myosuroides (Alopecurus myosuroides; 3 g of a.i./ha): 80%
Herbicidal action 28 DAT against Alopecurus myosuroides (Alopecurus myosuroides; 9 g of a.i./ha): 85%
Herbicidal action 14 DAT against Bromus sterilis (Bromus sterilis; 1 g of a.i./ha): 65%
Herbicidal action 14 DAT against Bromus sterilis (Bromus sterilis; 3 g of a.i./ha): 85%
Herbicidal action 28 DAT against Bromus sterilis (Bromus sterilis; 3 g of a.i./ha): 25%
Herbicidal action 14 DAT against Bromus sterilis (Bromus sterilis; 9 g of a.i./ha): 85%
Herbicidal action 28 DAT against Bromus sterilis (Bromus sterilis; 9 g of a.i./ha): 60%
Herbicidal action 14 DAT against Veronica hederifolia (Veronica hederifolia; 1 g of a.i./ha): 80%
Herbicidal action 28 DAT against Viola tricolor (Viola tricolor; 1 g of a.i./ha): 65%
Herbicidal action 28 DAT against Viola tricolor (Viola tricolor; 3 g of a.i./ha): 80%

From patent US12171230B2, “Herbicidal compositions” (Bayer Aktiengesellschaft, priority 2018, dated 2024)
